The source of these data is PubChem BioAssay AID256 (DTP/NCI, 2004).

In the test the test system is CD2F1 mice, L1210 leukemia ip, survival T/C. In words: NCI In Vivo Anticancer Drug Screen. Data for tumor model L1210 Leukemia (intraperitoneal) in CD2F1 (CDF1) mice. The following applies: higher = longer survival. In outline: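 Tumor-bearing mice (transplanted tumor) were split into treated and vehicle control groups, and the measured endpoint of each treated group was divided by that of its vehicle controls.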

The mark [1] stands for this setting: endpoint: mean survival time, dose: 100.0 mg/kg/injection, schedule: Q01DX001 (ip), vehicle: saline with Tween-80.
The mark [2] stands for this setting: endpoint: mean survival time, dose: 200.0 mg/kg/injection, schedule: Q01DX001 (ip), vehicle: saline with Tween-80.
Setting [3] is: endpoint: mean survival time, dose: 400.0 mg/kg/injection, schedule: Q01DX001 (ip), vehicle: saline with Tween-80.

Several values for one entry are separate records, joined by “and”; a condition that tells them apart may be missing. Identical values can stand only once. Toxic doses and inconclusive results are not listed.

As for `NC(=O)c1cn(C2OC(CO)C(O)C2O)c2ncnc(N)c12` (stereo unspecified), the T/C reads like this: (endpoint: mean survival time, dose: 0.06 mg/kg/injection, schedule: Q01DX009 (ip), vehicle: acid diluted with saline) 117 % of control; (endpoint: mean survival time, dose: 0.06 mg/kg/injection, schedule: Q01DX009 (ip), vehicle: saline) 108 % of control; (endpoint: mean survival time, dose: 0.08 mg/kg/injection, schedule: Q## X008 (ip), vehicle: carboxymethylcellulose (CMC)) 117 % of control; (endpoint: mean survival time, dose: 0.13 mg/kg/injection, schedule: Q01DX009 (ip), vehicle: saline) 120 % of control and 121 % of control; (endpoint: mean survival time, dose: 0.13 mg/kg/injection, schedule: Q03HX008 (ip), vehicle: saline) 124 % of control; (endpoint: mean survival time, dose: 0.13 mg/kg/injection, schedule: Q03HX016 (ip), vehicle: saline) 123 % of control. Also, the T/C runs as follows: (endpoint: mean survival time, dose: 0.13 mg/kg/injection, schedule: Q03HX024 (ip), vehicle: saline) 119 % of control; (endpoint: mean survival time, dose: 0.2 mg/kg/injection, schedule: Q01DX005 (ip), vehicle: saline) 115 % of control; (endpoint: mean survival time, dose: 0.25 mg/kg/injection, schedule: Q01DX005 (ip), vehicle: saline + alcohol) 124 % of control; (endpoint: mean survival time, dose: 0.31 mg/kg/injection, schedule: Q## X002 (ip), vehicle: carboxymethylcellulose (CMC)) 122 % of control; (endpoint: mean survival time, dose: 0.31 mg/kg/injection, schedule: Q## X008 (ip), vehicle: carboxymethylcellulose (CMC)) 114 % of control; (endpoint: mean survival time, dose: 0.5 mg/kg/injection, schedule: Q01DX009 (ip), vehicle: saline sonified) 123 % of control. Further, the T/C reads like this: (endpoint: mean survival time, dose: 0.5 mg/kg/injection, schedule: Q03HX024 (ip), vehicle: saline) 95 % of control; (endpoint: mean survival time, dose: 0.5 mg/kg/injection, schedule: Q04DX003 (ip), vehicle: saline) 122 % of control; (endpoint: mean survival time, dose: 0.63 mg/kg/injection, schedule: Q01DX001 (ip), vehicle: carboxymethylcellulose (CMC)) 123 % of control; (endpoint: mean survival time, dose: 0.63 mg/kg/injection, schedule: Q## X002 (ip), vehicle: carboxymethylcellulose (CMC)) 124 % of control; (endpoint: mean survival time, dose: 0.63 mg/kg/injection, schedule: Q## X008 (ip), vehicle: carboxymethylcellulose (CMC)) 91 % of control; (endpoint: mean survival time, dose: 1.0 mg/kg/injection, schedule: Q01DX001 (ip), vehicle: saline) 115 % of control and 119 % of control. Further, the T/C (endpoint: mean survival time, dose: 1.0 mg/kg/injection, schedule: Q01DX007 (ip), vehicle: saline) was 119 % of control; the T/C (endpoint: mean survival time, dose: 1.0 mg/kg/injection, schedule: Q01DX009 (ip), vehicle: saline sonified) is 88 % of control and 95 % of control and 111 % of control; the T/C (endpoint: mean survival time, dose: 1.0 mg/kg/injection, schedule: Q01DX009 (oral), vehicle: saline) was 93 % of control; the T/C (endpoint: mean survival time, dose: 1.0 mg/kg/injection, schedule: Q04DX003 (ip), vehicle: saline) is 122 % of control; the T/C (endpoint: mean survival time, dose: 1.0 mg/kg/injection, schedule: Q08DX002 (ip), vehicle: saline) was 117 % of control; the T/C (endpoint: mean survival time, dose: 1.25 mg/kg/injection, schedule: Q01DX001 (ip), vehicle: carboxymethylcellulose (CMC)) was 121 % of control. Further, the T/C was 114 % of control (endpoint: mean survival time, dose: 1.25 mg/kg/injection, schedule: Q## X002 (ip), vehicle: carboxymethylcellulose (CMC)); 109 % of control (endpoint: mean survival time, dose: 1.5 mg/kg/injection, schedule: Q01DX009 (ip), vehicle: saline with Tween-80); 117 % of control and 112 % of control (endpoint: mean survival time, dose: 2.0 mg/kg/injection, schedule: Q01DX001 (ip), vehicle: saline); 107 % of control (endpoint: mean survival time, dose: 2.0 mg/kg/injection, schedule: Q01DX001 (oral), vehicle: saline); 111 % of control (endpoint: mean survival time, dose: 2.0 mg/kg/injection, schedule: Q01DX009 (ip), vehicle: acid diluted with saline); 88 % of control and 93 % of control (endpoint: mean survival time, dose: 2.0 mg/kg/injection, schedule: Q01DX009 (ip), vehicle: saline sonified). The T/C (endpoint: mean survival time, dose: 2.0 mg/kg/injection, schedule: Q01DX009 (oral), vehicle: saline) was 97 % of control; the T/C (endpoint: mean survival time, dose: 2.0 mg/kg/injection, schedule: Q08DX002 (ip), vehicle: saline) was 119 % of control; the T/C (endpoint: mean survival time, dose: 2.5 mg/kg/injection, schedule: Q01DX001 (ip), vehicle: carboxymethylcellulose (CMC)) is 178 % of control; the T/C (endpoint: mean survival time, dose: 4.0 mg/kg/injection, schedule: Q01DX001 (ip), vehicle: saline) is 121 % of control and 124 % of control; the T/C (endpoint: mean survival time, dose: 4.0 mg/kg/injection, schedule: Q01DX001 (oral), vehicle: saline) was 112 % of control; the T/C (endpoint: mean survival time, dose: 4.0 mg/kg/injection, schedule: Q01DX005 (ip), vehicle: saline + alcohol) is 93 % of control. For the same molecule, the T/C reads like this: (endpoint: mean survival time, dose: 4.0 mg/kg/injection, schedule: Q01DX009 (oral), vehicle: saline) 98 % of control; (endpoint: mean survival time, dose: 4.0 mg/kg/injection, schedule: Q04DX003 (ip), vehicle: saline) 101 % of control; (endpoint: mean survival time, dose: 4.0 mg/kg/injection, schedule: Q08DX002 (ip), vehicle: saline) 120 % of control; (endpoint: mean survival time, dose: 8.0 mg/kg/injection, schedule: Q01DX001 (ip), vehicle: saline) 113 % of control; (endpoint: mean survival time, dose: 8.0 mg/kg/injection, schedule: Q01DX001 (oral), vehicle: saline) 101 % of control; (endpoint: mean survival time, dose: 8.0 mg/kg/injection, schedule: Q08DX002 (ip), vehicle: saline) 88 % of control. Moreover, the T/C was 107 % of control (endpoint: mean survival time, dose: 16.0 mg/kg/injection, schedule: Q01DX001 (oral), vehicle: saline); 106 % of control (endpoint: mean survival time, dose: 125.0 micrograms/kg/injection, schedule: Q01DX006 (iv), vehicle: saline); 100 % of control (endpoint: mean survival time, dose: 125.0 micrograms/kg/injection, schedule: Q01DX Z (im), vehicle: saline); 101 % of control (endpoint: mean survival time, dose: 250.0 micrograms/kg/injection, schedule: Q01DX006 (iv), vehicle: saline); 101 % of control (endpoint: mean survival time, dose: 250.0 micrograms/kg/injection, schedule: Q01DX Z (im), vehicle: saline); 106 % of control (endpoint: mean survival time, dose: 500.0 micrograms/kg/injection, schedule: Q01DX006 (iv), vehicle: saline). The T/C (endpoint: mean survival time, dose: 500.0 micrograms/kg/injection, schedule: Q01DX Z (im), vehicle: saline) was 107 % of control; the T/C (endpoint: mean survival time, dose: 1000.0 micrograms/kg/injection, schedule: Q01DX006 (iv), vehicle: saline) is 109 % of control; the T/C (endpoint: mean survival time, dose: 1000.0 micrograms/kg/injection, schedule: Q01DX Z (im), vehicle: saline) is 103 % of control; the T/C (endpoint: median survival time, dose: 2.0 mg/kg/injection, schedule: Q01DX009 (ip), vehicle: saline) is 112 % of control.
Consider `N/C(=N/O)c1cn(C2OC(CO)C(O)C2O)c2nc[nH]c(=O)c12` (stereo unspecified), for which the T/C (endpoint: mean survival time, dose: 75.0 mg/kg/injection, schedule: Q01DX001 (ip), vehicle: water) is 119 % of control.
On to `Nc1nc(N)c(-c2ccc(Cl)cc2)c(COc2ccc(C3(CCl)OCCO3)cc2)n1`, for which the T/C (endpoint: mean survival time, dose: 25.0 mg/kg/injection, schedule: Q01DX001 (ip), vehicle: saline with Tween-80) is 94 % of control; the T/C (endpoint: mean survival time, dose: 50.0 mg/kg/injection, schedule: Q01DX001 (ip), vehicle: saline with Tween-80) is 102 % of control; the T/C under setting [1] is 100 % of control.
For the molecule `CN1C(C)(C)CC(CN2c3ccccc3Sc3ccccc32)C1(C)C` (stereo unspecified), the T/C was 97 % of control (endpoint: mean survival time, dose: 100.0 mg/kg/injection, schedule: Q04DX003 (ip), vehicle: saline with Tween-80) and 104 % of control (endpoint: mean survival time, dose: 200.0 mg/kg/injection, schedule: Q04DX003 (ip), vehicle: saline with Tween-80).
Regarding `Nc1nc2c(ncn2-c2ccc(O)cc2)c(=O)[nH]1`, the T/C under setting [1] was 96 % of control, the T/C under setting [2] is 87 % of control and the T/C under setting [3] is 91 % of control.
Regarding `CCOC(=O)C(C#N)CC` (stereo unspecified), the T/C by setting is: (endpoint: mean survival time, dose: 100.0 mg/kg/injection, schedule: Q01DX001 (ip), vehicle: saline) 98 % of control; (endpoint: mean survival time, dose: 200.0 mg/kg/injection, schedule: Q01DX001 (ip), vehicle: saline) 98 % of control; (endpoint: mean survival time, dose: 400.0 mg/kg/injection, schedule: Q01DX001 (ip), vehicle: saline) 107 % of control.
As to `CC(=O)OC1CC2C=CCC21` (stereo unspecified), the T/C reads like this: under setting [1], 100 % of control; under setting [2], 96 % of control; under setting [3], 96 % of control.
With `CN(CCOS(C)(=O)=O)CCOS(C)(=O)=O`, the T/C (endpoint: mean survival time, dose: 5.0 mg/kg/injection, schedule: Q01DX001 (ip), vehicle: saline) is 121 % of control.
With `CC(=O)OCC(=O)[C@@]12OC(C)(C)O[C@@H]1C[C@H]1[C@@H]3CC(C=O)=C4C=C(OCCCl)CC[C@]4(C)[C@@]3(F)[C@@H](O)C[C@@]12C`, the T/C (endpoint: mean survival time, dose: 100.0 mg/kg/injection, schedule: Q04DX003 (ip), vehicle: acetone) is 103 % of control; the T/C (endpoint: mean survival time, dose: 200.0 mg/kg/injection, schedule: Q04DX003 (ip), vehicle: acetone) was 105 % of control; the T/C (endpoint: mean survival time, dose: 400.0 mg/kg/injection, schedule: Q04DX003 (ip), vehicle: acetone) is 102 % of control.
